Experimental data reported in patent US11104664B2, “4,5,6-trisubstituted indazole derivatives, and preparation method and pharmaceutical use thereof” (SHANGHAI HAIYAN PHARMACEUTICAL TECHNOLOGY CO., LTD., priority 2016, dated 2021).

Columns and labels:
[1] = target: Recombinant PRC2 (EZH2-Y641F) (Homo sapiens (Human), UniProt Q15910, Y641F); assay: In vitro methyltransferase activity assay (LANCE Ultra); format: biochemical; conditions: for IC50: 2.5 μM SAM/250 nM H3(1-50)K27me1, 3 hours, room temperature; for inhibitory activity against the enzyme (in words): SAR comment on Table 1, reduced relative to comparator compounds (P-7, P-13/14)
Procedure: Recombinant PRC2 (EZH2-Y641F) was purchased from Active motif, S-adenosyl-methionine (SAM) and Poly-L-lysine (PLL) were purchased from Sigma-Aldrich, and H3(1-50)K27me1 peptide was purchased from Cisbio. LANCEUltrasystem (Perkinelmer) was used for detection system. In the enzyme activity test, compounds to be tested were diluted by 8 gradient points in a ratio of 1:3, and added into each well in a reaction plate, and 100 ng recombinase was added, followed by a buffer [20 mM Tris pH8.5, 2 mM MgCl2, 0.01% Tween-20, 1 mM TCEP] containing 2.5 μM SAM/250 nM H3 (1-50)K27me1 premixtures. Enzymatic reaction thus began at room temperature. After reacted for 3 hours, a detection solution premixed with PLL, detection antibody and Ulight was added, and reacted for 1 hour at room temperature. The fluorescence value was then read on a Tecan infinite pro. IC50 was calculated by fitting in a four-factor model in the XLfit software.

Pfeiffer cells = assay: Cell proliferation assay (Cell counting kit-8, 6 days); format: cell-based; conditions: Pfeiffer (CRL-2632), 6 days culture
Procedure: The used cell lines Pfeiffer (CRL-2632), suDHL-6 (CRL-2959) and suDHL-10 (CRL-2963) were obtained from American Type Culture Collection (ATCC). All cell lines were cultured in RPMI-1640 medium (Gibco) containing 10% fetal bovine serum (Gibco). The cultured cells were harvested by centrifugation and the cell density was determined using a CounterStar cell counter. Appropriate number of cells were plated in a 96-well culture plate and incubated overnight. Compounds to be tested were diluted by 8 gradient points in a ratio of 1:3 and added into corresponding wells. After continuing to culture for 6 days, the number of viable cells was measured with Cell counting kit-8, and the absorbance value was read on Tecan infinite pro. The IC50 was calculated by fitting in a four-parameter model in the XLfit software.

Recombinant PRC2 (EZH2-Y641F), sequence (Q15910 whole entry Y641F): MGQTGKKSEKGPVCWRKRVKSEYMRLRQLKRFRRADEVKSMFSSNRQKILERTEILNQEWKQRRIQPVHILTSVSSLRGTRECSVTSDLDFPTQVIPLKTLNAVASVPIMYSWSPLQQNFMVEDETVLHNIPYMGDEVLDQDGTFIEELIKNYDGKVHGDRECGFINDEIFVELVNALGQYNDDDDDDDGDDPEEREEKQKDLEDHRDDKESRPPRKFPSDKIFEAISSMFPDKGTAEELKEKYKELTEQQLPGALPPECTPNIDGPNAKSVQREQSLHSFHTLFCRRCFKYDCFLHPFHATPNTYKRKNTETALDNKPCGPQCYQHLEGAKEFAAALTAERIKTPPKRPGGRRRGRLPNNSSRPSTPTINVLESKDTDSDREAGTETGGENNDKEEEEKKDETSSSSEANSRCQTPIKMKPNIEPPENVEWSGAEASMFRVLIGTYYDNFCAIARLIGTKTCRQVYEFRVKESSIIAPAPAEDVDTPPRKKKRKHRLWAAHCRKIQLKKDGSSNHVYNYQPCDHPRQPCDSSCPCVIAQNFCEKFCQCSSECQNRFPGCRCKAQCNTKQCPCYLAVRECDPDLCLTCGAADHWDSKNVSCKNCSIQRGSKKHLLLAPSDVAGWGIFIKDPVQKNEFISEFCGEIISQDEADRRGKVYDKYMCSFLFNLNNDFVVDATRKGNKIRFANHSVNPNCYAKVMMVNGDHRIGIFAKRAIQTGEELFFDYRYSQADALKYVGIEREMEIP
Recombinant PRC2 (EZH2-Y641F), sequence (O75530 whole entry partner): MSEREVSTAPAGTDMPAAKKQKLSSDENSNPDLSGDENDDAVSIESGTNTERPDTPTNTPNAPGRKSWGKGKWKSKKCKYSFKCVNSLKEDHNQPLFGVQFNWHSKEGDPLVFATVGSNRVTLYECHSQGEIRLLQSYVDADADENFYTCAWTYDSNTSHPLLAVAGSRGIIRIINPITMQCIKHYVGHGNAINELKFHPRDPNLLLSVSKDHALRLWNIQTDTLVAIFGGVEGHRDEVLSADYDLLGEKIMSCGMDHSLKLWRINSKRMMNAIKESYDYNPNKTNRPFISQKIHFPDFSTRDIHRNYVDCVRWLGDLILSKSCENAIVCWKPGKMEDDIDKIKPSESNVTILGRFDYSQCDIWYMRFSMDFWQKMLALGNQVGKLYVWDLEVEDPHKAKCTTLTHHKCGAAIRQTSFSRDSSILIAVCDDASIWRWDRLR
Recombinant PRC2 (EZH2-Y641F), sequence (Q15022 whole entry partner): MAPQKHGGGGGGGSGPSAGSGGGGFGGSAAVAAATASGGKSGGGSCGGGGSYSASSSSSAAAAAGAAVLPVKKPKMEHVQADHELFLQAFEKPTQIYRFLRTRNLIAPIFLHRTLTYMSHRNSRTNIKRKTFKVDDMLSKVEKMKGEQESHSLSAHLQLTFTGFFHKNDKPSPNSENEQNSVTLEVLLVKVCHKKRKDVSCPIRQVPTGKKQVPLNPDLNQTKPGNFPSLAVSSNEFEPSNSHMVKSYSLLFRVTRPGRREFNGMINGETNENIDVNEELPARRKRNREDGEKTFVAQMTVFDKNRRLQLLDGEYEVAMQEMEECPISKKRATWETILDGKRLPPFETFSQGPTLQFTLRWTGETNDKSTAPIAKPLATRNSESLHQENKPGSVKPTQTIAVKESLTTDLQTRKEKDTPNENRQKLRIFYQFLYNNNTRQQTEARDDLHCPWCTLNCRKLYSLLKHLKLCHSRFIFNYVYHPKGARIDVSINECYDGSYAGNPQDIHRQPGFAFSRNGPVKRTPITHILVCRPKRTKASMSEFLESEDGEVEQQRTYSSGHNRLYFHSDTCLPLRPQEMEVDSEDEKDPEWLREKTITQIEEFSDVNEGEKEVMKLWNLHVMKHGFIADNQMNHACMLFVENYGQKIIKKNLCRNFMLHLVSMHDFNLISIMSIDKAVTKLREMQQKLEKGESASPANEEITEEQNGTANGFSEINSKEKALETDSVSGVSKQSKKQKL
Recombinant PRC2 (EZH2-Y641F), sequence (Q09028 whole entry partner): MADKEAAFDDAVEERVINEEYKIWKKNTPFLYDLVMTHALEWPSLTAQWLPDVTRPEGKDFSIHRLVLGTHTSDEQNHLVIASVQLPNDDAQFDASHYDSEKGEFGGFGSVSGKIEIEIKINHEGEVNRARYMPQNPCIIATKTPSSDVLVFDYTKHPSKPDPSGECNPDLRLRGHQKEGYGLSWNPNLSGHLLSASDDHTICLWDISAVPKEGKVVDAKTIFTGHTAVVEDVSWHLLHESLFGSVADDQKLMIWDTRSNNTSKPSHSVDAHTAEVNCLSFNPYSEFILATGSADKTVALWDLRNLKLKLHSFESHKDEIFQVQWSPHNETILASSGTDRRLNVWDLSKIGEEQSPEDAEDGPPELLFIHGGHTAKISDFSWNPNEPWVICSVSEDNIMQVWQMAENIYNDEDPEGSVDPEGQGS
Recombinant PRC2 (EZH2-Y641F), sequence (Q6ZN18 whole entry partner): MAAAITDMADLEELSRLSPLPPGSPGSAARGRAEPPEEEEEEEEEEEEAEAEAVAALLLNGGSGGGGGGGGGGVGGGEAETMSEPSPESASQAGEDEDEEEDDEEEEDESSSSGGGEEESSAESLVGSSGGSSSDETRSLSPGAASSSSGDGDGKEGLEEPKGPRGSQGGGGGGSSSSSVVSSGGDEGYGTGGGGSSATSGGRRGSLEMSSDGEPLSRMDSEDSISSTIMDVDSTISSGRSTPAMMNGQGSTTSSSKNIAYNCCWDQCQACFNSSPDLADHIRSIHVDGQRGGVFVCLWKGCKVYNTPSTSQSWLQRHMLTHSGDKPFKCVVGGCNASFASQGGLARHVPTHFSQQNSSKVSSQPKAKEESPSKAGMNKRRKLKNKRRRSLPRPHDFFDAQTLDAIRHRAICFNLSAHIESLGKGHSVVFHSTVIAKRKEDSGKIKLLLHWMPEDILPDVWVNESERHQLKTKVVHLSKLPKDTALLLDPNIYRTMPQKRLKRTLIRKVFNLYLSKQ

| IC50 [1] | inhibitory activity against the enzyme (in words) [1] | Molecule | IC50 (Pfeiffer cells) | IC50 (Pfeiffer cells; Homo sapiens, 144 h) |
| --- | --- | --- | --- | --- |
| 5 nM | – | CCc1c(C(=O)NCc2c(OC)cc(C)[nH]c2=O)cc2c(cnn2C)c1N(CC)C1CCC(N(C)C)CC1 (stereo not drawn) [P-22, 4-((4-(dimethylamino)cyclohexyl)(ethyl)amino)-5-ethyl-N-((4-methoxy-6-methyl-2-oxo-1,2-dihydropyridin-3-yl)methyl) 1-methyl-1H-indazole-6-carboxamide] | 66 nM | – |
| 53 nM | – | CCN(c1c(C)c(C(=O)NCc2c(C)cc(C)[nH]c2=O)cc2c1cnn2C)C1CCC(C)(N)CC1 (stereo not drawn) [P-46] | – | – |
| 425 nM | greatly reduced | CCN(c1c(C)c(C(=O)NCc2c(C)cc(C)[nH]c2=O)cc2c1c(F)nn2C)C1CCOCC1 [P-41] | – | 2000 nM |
| 18 nM | – | CCc1c(C(=O)NCc2c(C)cc(C)[nH]c2=O)cc2c(cnn2C)c1N(CC)C1CCC(N(C)CCOC)CC1 [P-20, N-((4,6-dimethyl-2-oxo-1,2-dihydropyridin-3-yl)methyl)-5-ethyl-4-(ethyl((1S, 4S)-4-((2-methoxyethyl)(methyl)amino)cyclohexyl)amino)-1-methyl-1H-indazole-6-carboxamide] | 31 nM | – |
| 8 nM | – | CCc1c(C(=O)NCc2c(C)cc(C)[nH]c2=O)cc2c(cnn2C)c1N(CC)C1CCOCC1 [P-17, N-((4,6-dimethyl-2-oxo-1,2-dihydropyridin-3-yl)methyl)-5-ethyl-4-(ethyl(tetrahydro-2H-pyran-4-yl)amino)-1-methyl-1H-indazole-6-carboxamide] | – | 36 nM |
| 27 nM | – | CCN(c1c(C)c(C(=O)NCc2c(C)cc(C)[nH]c2=O)cc2c1cnn2C)C1CCC(N(C)CC(F)F)CC1 (stereo not drawn) [P-45, 4-((4-((2,2-difluoroethyl) (methyl)amino)cyclohexyl)(ethyl)amino)-N-((4,6-dimethyl-2-oxo-1,2-dihydropyridin-3-yl)methyl)-1,5-dimethyl-1H-indazole-6-carboxamide] | – | – |
| 5 nM | – | CCc1c(C(=O)NCc2c(C)cc(C)[nH]c2=O)cc2c(cnn2C)c1N(CC)C1CCC(N(C)C)CC1 (stereo not drawn) [P-23] | – | 25 nM |
| 45 nM | – | CCc1c(C(=O)NCc2c(C)cc(C)[nH]c2=O)cc2c(cnn2C)c1N(CC)[C@H]1CC[C@H](N2CC(OC)C2)CC1 [P-19] | 76 nM | – |
| 8 nM | – | CCc1c(C(=O)NCc2c(OC)cc(C)[nH]c2=O)cc2c(cnn2C)c1N(CC)C1CCOCC1 [P-16, 5-ethyl-4-(ethyl(tetrahydro-2H-pyran-4-yl)amino)-N-((4-methoxy-6-methyl-2-oxo-1,2-dihydropyridin-3-yl)methyl)-1-methyl-1H-indazole-6-carboxamide] | – | 7 nM |
| 23 nM | – | CCN(c1c(C)c(C(=O)NCc2c(C)cc(C)[nH]c2=O)cc2c1cnn2C)[C@H]1CC[C@@H](N(C)C)CC1 [P-13, N-((4,6-dimethyl-2-oxo-1,2-dihydropyridin-3-yl)methyl)-4-(((1S, 4S)-4-(dimethylamino)cyclohexyl) (ethyl)amino)-1,5-dimethyl-1H-indazole-6-carboxamide] | – | – |
| 61 nM | – | CCN(c1c(C)c(C(=O)NCc2c(C)cc(C)[nH]c2=O)cc2c1cnn2C(F)F)C1CCOCC1 [P-10, 1-(difluoromethyl)-N-((4,6-dimethyl-2-oxo-1,2-dihydropyridin-3-yl)methyl)-4-(ethyl(tetrahydro-2H-pyran-4-yl)amino)-5-methyl-1H-indazole-6-carboxamide] | – | 141 nM |
| 9 nM | – | CCc1c(C(=O)NCc2c(C)cc(C)[nH]c2=O)cc2c(cnn2C)c1N(CC)C1CCC(N2CCOCC2)CC1 (stereo not drawn) [P-24] | – | 169 nM |
| > 10000 nM | – | CCN(c1cc(C(=O)NCc2c(C)cc(C)[nH]c2=O)c(C)c2c1cnn2C)C1CCOCC1 [D1, N-((4,6-dimethyl-2-oxo-1,2-dihydropyridin-3-yl)methyl)-4-(ethyl(tetrahydro-2H-pyran-4-yl)amino)-1,7-dimethyl-1H-indazole-6-carboxamide, reference compound] | – | > 10000 nM |
| 1750 nM | – | CCN(c1c(C#N)c(C(=O)NCc2c(C)cc(C)[nH]c2=O)cc2c1cnn2C)C1CCOCC1 [P-27] | – | > 10000 nM |
| 7 nM | – | CCc1c(C(=O)NCc2c(C)cc(C)[nH]c2=O)cc2c(cnn2C)c1N(CC)C1CCC(N2CC(O)C2)CC1 (stereo not drawn) [P-47, N-((4,6-dimethyl-2-oxo-1,2-dihydropyridin-3-yl)methyl)-5-ethyl-4-(ethyl(4-(3-hydroxyazetidin-1-yl)cyclohexyl)amino)-1-methyl-1H-indazole-6-carboxamide] | – | 178 nM |
| 148 nM | significantly reduced | CCN(c1c(C)c(C(=O)NCc2c(OC)cc(C)[nH]c2=O)cc2nn(C)cc12)C1CCOCC1 [P-50, 4-(ethyl(tetrahydro-2H-pyran-4-yl)amino)-N-((4-methoxy-6-methyl-2-oxo-1,2-dihydropyridin-3-yl)methyl)-2,5dimethyl-2H-indazole-6-carboxamide] | – | – |

More lines, now with the values behind:

| Molecule | IC50 [1] | inhibitory activity against the enzyme (in words) [1] | IC50 (Pfeiffer cells) | IC50 (Pfeiffer cells; Homo sapiens, 144 h) |
| --- | --- | --- | --- | --- |
| CCc1c(C(=O)NCc2c(C)cc(C)[nH]c2=O)cc2c(cnn2C)c1N(CC)C1CCC(N2CC(C)C2)CC1 [P-18, N-((4,6-dimethyl-2-oxo-1,2-dihydropyridin-3-yl)methyl)-5-ethyl-4-(ethyl((1S,4S)-4-(3-methylazetiazin-1-yl)cyclohexyl)amino)-1-methyl-1H-indazole-6-carboxamide] | 12 nM | – | 7 nM | – |
| CCN(c1c(C)c(C(=O)NCc2c(C)cc(C)[nH]c2=O)cc2c1c(C)nn2C)C1CCC(N(C)C)CC1 (stereo not drawn) [P-42] | 253 nM | greatly reduced | – | – |
| CCN(c1c(C)c(C(=O)NCc2c(C)cc(C)[nH]c2=O)cc2c1cnn2C)C1CCN(C2CCOCC2)CC1 [P-33] | 37 nM | – | – | – |
| CCN(c1c(C)c(C(=O)NCc2c(C)cc(C)[nH]c2=O)cc2c1cnn2C)C1CCC(N2CC(OCC(F)(F)F)C2)CC1 (stereo not drawn) [P-37] | 12 nM | – | – | 297 nM |
| CCN(c1c(C)c(C(=O)NCc2c(OC)cc(C)[nH]c2=O)cc2cn[nH]c12)C1CCOCC1 [P-3, 7-(ethyl(tetrahydro-2H-pyran-4-yl)amino)-N-((4-methoxy-6-methyl-2-oxo-1,2-dihydropyridin-3-yl)methyl)-6-methyl-1H-imidazole-5-carboxamide] | 154 nM | significantly reduced | – | – |
| CCN(c1c(C)c(C(=O)NCc2c(C)cc(C)[nH]c2=O)cc2c1cnn2C)C1CCC(N(C)CCN(C)C)CC1 (stereo not drawn) [P-34] | 26 nM | – | – | 196 nM |
| CCN(c1c(C)c(C(=O)NCc2c(OC)cc(C)[nH]c2=O)cc2[nH]ncc12)C1CCOCC1 [P-2, 4-(ethyl(tetrahydro-2H-pyran-4-yl)amino)-N-((4-methoxy-6-methyl-2-oxo-1,2-dihydropyridin-3-yl)methyl)-5-methyl-1H-indazole-6-carboxamide] | 24 nM | – | – | – |
| CCN(c1c(C)c(C(=O)NCc2c(C)cc(C)[nH]c2=O)cc2c1cnn2C)C1CCC(N2CC(F)(F)C2)CC1 (stereo not drawn) [P-31] | 15 nM | – | – | 130 nM |
| CCN(c1c(C)c(C(=O)NCc2c(OC)cc(C)[nH]c2=O)cc2nn(C)cc12)C1CCN(CC(F)(F)F)CC1 [P-12, 4-(ethyl(1-(2,2,2-trifluoroethyl)piperidin-4-yl)amino)-N-((4-methoxy-6-methyl-2-oxo-1,2-dihydropyridin-3-yl)methyl)-2,5-dimethyl-2H-indazole-6-carboxamide] | 117 nM | – | – | – |
| CCN(c1c(C)c(C(=O)NCc2c(OC)cc(C)[nH]c2=O)cc2c1cnn2C(F)F)C1CCOCC1 [P-5, 1-(difluoromethyl)-4-(ethyl(tetrahydro-2H-pyran-4-yl)amino)-N-((4-methoxy-6-methyl-2-oxo-1,2-dihydropyridin-3-yl)methyl)-5-methyl-1H-indazole-6-carboxamide] | – | – | – | 71 nM |
| CCN(c1c(C)c(C(=O)NCc2c(C)cc(C)[nH]c2=O)cc2c1cnn2C)C1CCOCC1 [P-7, N-((4,6-dimethyl-2-oxo-1,2-dihydropyridin-3-yl)methyl)-4-(ethyl(tetrahydro-2H-pyran-4-yl)amino)-1,5-dimethyl-1H-indazole-6-carboxamide] | – | – | – | 158 nM |
| CCN(c1c(C)c(C(=O)NCc2c(C)cc(C)[nH]c2=O)cc2c1cnn2C)C1CCN(CC(F)(F)F)CC1 [P-8, N-((4,6-dimethyl-2-oxo-1,2-dihydropyridin-3-yl)methyl)-4-(ethyl(1-(2,2,2-trifluoroethyl)piperidin-4-yl)amino)-1,5-dimethyl-1H-indazole-6-carboxamide] | 53 nM | – | – | – |
| CCN(c1c(C)c(C(=O)NCc2c(C)cc(C)[nH]c2=O)cc2c1cnn2CC1CCOC1)C1CCOCC1 (stereo not drawn) [P-40] | – | – | – | 268 nM |
| 7-(ethyl(tetrahydro-2H-pyran-4-yl)amino)-N-((4-methoxy-6-methyl-2-oxo-1,2-dihydropyridin-3-yl)methyl)-1,6-dimethyl-1H-imidazole-5-carboxamide [P-4] | 502 nM | significantly reduced | – | – |
